Measured values reported in patent EP0340709A1, “(3-Chloro-methyl phenyl)ethyl amines, processes for their production and their use” (BASF Aktiengesellschaft, priority 1988, dated 1989).

System: breitblättrigew unerwünschte Pflanzen
Assay: Greenhouse herbicide test, pre- and post-emergence treatment
Assay type: in vivo
Settings: 2,0 kg/ha a.S., Nachauflaufverfahren bzw. Vorauflaufverfahren, 2 bis 4 Wochen
Source text: Die herbizide Wirkfung der (3-Chlor-2-methylphenylethylamine der Formel I ließ sich durch Gewächshausversuche zeigen: Zur Aufzucht der Testpflanzen dienten Plastikblumentöpfe mit 300 cm³ Inhalt und lehmigem Sand mit etwa 3 % Humus als Substrat. Die Samen der Testpflanzen wurden nach Arten getrennt flach eingesät.
Bei Vorauflaufbehandlung wurden die aufbereiteten Wirkstoffe unmittelbar danach auf die Erdoberfläche aufgebracht. Sie wurden hierbei in Wasser als Verteilungsmittel suspendiert oder emulgiert und mittels fein verteilender Düsen gespritzt. Nach dem Aufbringen der Mittel wurden die Gefäße leicht beregnet, um Keimung und Wachstum in Gang zu bringen. Danach wurden die Gefäße mit durchsichtigen Plastikhauben abgedeckt, bis die Pflanzen angewaschsen waren. Diese Abdeckung fördert ein gleichmäßiges Keimen der Testpflanzen, sofern dies nicht durch die Wirkstoffe beeinträchtigt wird. Die Aufwandmengen betrugen 2,0 kg/ha.
Zum Zwecke der Nachauflaufbehandlung wurden die Testpflanzen je nach Wuchsform erst bis zu einer Wuchshöhe von 3 bis 15 cm angezüchtet und erst dann behandelt. Die Testpflanzen wurden dafür entweder direkt gesät und in den gleichen Gefäßen aufgezogen oder sie wurden als Keimpflanzen getrennt gezüchtet und einige Tage vor der Behandlung in die Versuchsgefäße verpflanzt. Die Aufwandmengen für die Nachauflaufbehandlung betrugen 2,0 kg Wirkstoff/ha. […]

## Cc1c(Cl)cccc1CCNC(=O)c1ccccc1 [Beispiel 3, N-Benzoyl-3-chlor-2-methylphenethylamin]
  herbizide Wirkung (Bekämpfung breitblättriger unerwünschter Pflanzen): sehr gut
